Data from EP1179050B1, “METHOD FOR THE PURIFICATION OF PROTEIN KINASE BY AFFINITY CHROMATOGRAPHY” (University of Tartu, priority 1999, dated 2000).
Where two headings read alike, the source gives them in different places. Values belong to the compound of their own block, whether it stands above or below them. *1 amine or outer side, *2 acyl side, *3 side chain or, on linkers, in order; H or OH if unused. Where a SMILES comes first, the peptide text is derived from it. [ ]: non-standard residue; d: D form. The star is where a group is joined. Adenosine(5'-uronoyl) = Nc1ncnc2c1ncn2[C@@H]1O[C@H](C(=O)*)[C@@H](O)[C@H]1O; X1 = Nc1ncnc2c1ncn2[C@@H]1O[C@H](C(=O)NC[C@H](N)C(=O)*)[C@@H](O)[C@H]1O; βAsp = O=C(O)[C@H](CC(=O)[*:2])N[*:1]; Dap = NC[C@H](N)C(=O)O

Legend:
PKA = PKA (Mus musculus, UniProt P05132); conditions: literature values; read-out: Kd (affinity to PKA); cited from earlier work
Protein Kinase A [1] = biological target: T1, Protein Kinase A (Mus musculus, UniProt P05132); assay: Inhibition constant for PKA (Table 3); type: biochemical
Protein Kinase A [2] = biological target: T1, Protein Kinase A; assay: Inhibition constant for PKA (Table 3); type: biochemical; remark: listed apart in the source
Protein Kinase C = assay: Inhibition constant for PKC (Table 3); type: biochemical
protein kinase CK2 = protein kinase CK2 (Rattus norvegicus, UniProt P19139); assay: Protein kinase CK2 activity inhibition, casein substrate, [γ-32P]ATP phosphocellulose paper assay; type: biochemical; conditions: 30°C, pH 7.5, 1 mg/mL casein, 30 µM [γ-32P] ATP; n. i. means no inhibition at 100 µM concentration of ligand
Sequence of protein kinase CK2 (P19139 whole entry): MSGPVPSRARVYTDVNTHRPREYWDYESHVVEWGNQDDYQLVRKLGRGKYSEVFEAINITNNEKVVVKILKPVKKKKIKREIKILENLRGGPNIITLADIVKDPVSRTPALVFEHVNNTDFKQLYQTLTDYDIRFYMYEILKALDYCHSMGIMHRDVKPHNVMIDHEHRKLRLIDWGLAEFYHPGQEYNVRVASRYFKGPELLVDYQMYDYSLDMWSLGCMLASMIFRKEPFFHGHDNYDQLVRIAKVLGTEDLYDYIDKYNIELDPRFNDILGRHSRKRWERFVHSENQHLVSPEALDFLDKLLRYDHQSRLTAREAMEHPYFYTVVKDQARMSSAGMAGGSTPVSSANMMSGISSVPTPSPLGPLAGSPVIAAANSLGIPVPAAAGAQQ

[3] = biological target: catalytic subunit of murine PKA (Mus musculus, UniProt P05132); assay: Protein kinase A (PKA) activity inhibition, [γ-32P]ATP phosphocellulose paper assay; type: biochemical
protein kinase CK1 = assay: Protein kinase CK1 activity inhibition, casein substrate, [γ-32P]ATP phosphocellulose paper assay; type: biochemical, rat; conditions: 30°C, pH 7.5, 1 mg/mL casein, 30 µM [γ-32P] ATP
[4] = biological target: Ca^2+-dependent protein kinase (CDPK-1); assay: Ca2+-dependent protein kinase (CDPK-1) activity inhibition, [γ-32P]ATP phosphocellulose paper assay; type: biochemical, maize; conditions: 30°C, pH 7.5, 50 µM substrate peptide, 30 µM [γ-32P]ATP
[5] = biological target: Protein kinase C β isoform (PKC); assay: Protein kinase C β (PKC) activity inhibition, [γ-32P]ATP phosphocellulose paper assay; type: biochemical, pig; conditions: 30°C, pH 7.5, 15 µM substrate peptide, 30 µM [γ-32P] ATP

SMILES: Nc1ncnc2c1ncn2[C@@H]1O[C@H](COP(=O)(O)OP(=O)(O)OP(=O)(O)O)[C@@H](O)[C@H]1O [ATP, adenosine triphosphate]
- Kd (PKA): 25 µM

- Ki (Protein Kinase A [1]): 27900 nM
SMILES: CC(=O)NCCCCCC(=O)N[C@@H](CCCN=C(N)N)C(=O)N[C@@H](CCCNC(=N)N)C(=O)N[C@@H](CCCNC(=N)N)C(=O)N[C@@H](CCCNC(=N)N)C(=O)N[C@@H](CCCNC(=N)N)C(=O)N[C@@H](CCCN=C(N)N)C(=O)O [Ac(amino-hexanoic acid)Arg6, Ac(Ahx)Arg6]

- Ki (Protein Kinase A [2]): 43100 nM
- Ki (Protein Kinase C): 43200 nM
SMILES: Nc1ncnc2c1ncn2[C@@H]1O[C@H](CO)[C@@H](O)[C@H]1O [Adenosine]

- Ki (Protein Kinase A [1]): 29500 nM
SMILES: NC(N)=NCCC[C@H](NC(=O)[C@H](CCCN=C(N)N)NC(=O)[C@H](CCCN=C(N)N)NC(=O)[C@H](CCCN=C(N)N)NC(=O)[C@H](CCCN=C(N)N)NC(=O)[C@@H](N)CCCN=C(N)N)C(=O)O [Arg6]

SMILES: C[C@H](NC(=O)CCNC(=O)CCNC(=O)[C@H]1O[C@@H](n2cnc3c(N)ncnc32)[C@H](O)[C@@H]1O)C(=O)N[C@@H](CCCNC(=N)N)C(=O)N[C@@H](CCCNC(=N)N)C(=O)N[C@@H](CCCNC(=N)N)C(=O)N[C@@H](CCCNC(=N)N)C(=O)N[C@@H](CCCNC(=N)N)C(=O)N[C@@H](CCCNC(=N)N)C(=O)O [Inhibitor I, AdoC(β-Ala )2AlaArg6]
- IC50 (protein kinase CK2): > 30 µM
- IC50 [3]: 4.3 ± 0.3 µM

SMILES: C[C@H](NC(=O)[C@@H](N)CNC(=O)[C@@H](N)CNC(=O)[C@H]1O[C@@H](n2cnc3c(N)ncnc32)[C@H](O)[C@@H]1O)C(=O)N[C@@H](CCCNC(=N)N)C(=O)N[C@@H](CCCNC(=N)N)C(=O)N[C@@H](CCCNC(=N)N)C(=O)N[C@@H](CCCNC(=N)N)C(=O)N[C@@H](CCCNC(=N)N)C(=O)N[C@@H](CCCNC(=N)N)C(=O)O [Inhibitor II, AdoC(Dpr)2AlaArg6] (H-[Dap](X1)ARRRRRR-OH; C-terminus assumed)
- IC50 (protein kinase CK1): 5.6 ± 0.4 µM
- IC50 [4]: 31 ± 3 µM

SMILES: C[C@H](NC(=O)C[C@H](NC(=O)C[C@H](NC(=O)[C@H]1O[C@@H](n2cnc3c(N)ncnc32)[C@H](O)[C@@H]1O)C(=O)O)C(=O)O)C(=O)N[C@@H](CCCNC(=N)N)C(=O)N[C@@H](CCCNC(=N)N)C(=O)N[C@@H](CCCNC(=N)N)C(=O)N[C@@H](CCCNC(=N)N)C(=O)N[C@@H](CCCNC(=N)N)C(=O)N[C@@H](CCCNC(=N)N)C(=O)O [Inhibitor III, AdoC(β-Asp)2AlaArg6] ({Adenosine(5'-uronoyl)-βAsp-βAsp}-ARRRRRR-OH; C-terminus assumed)
- IC50 (protein kinase CK1): > 30 µM
- IC50 [4]: > 50 µM
- IC50 [5]: 27 ± 2 µM

SMILES: N=C(N)NCCC[C@H](NC(=O)[C@H](CCCNC(=N)N)NC(=O)[C@H](CCCNC(=N)N)NC(=O)[C@H](CCCNC(=N)N)NC(=O)[C@H](CCCNC(=N)N)NC(=O)[C@H](CCCNC(=N)N)NC(=O)CNC(=O)[C@H]1O[C@@H](n2cnc3c(N)ncnc32)[C@H](O)[C@@H]1O)C(=O)O [Inhibitor IV, AdoCGlyArg6]
- IC50 (protein kinase CK2): > 30 µM
- IC50 [3]: 4 ± 0.2 µM

SMILES: N=C(N)NCCC[C@H](NC(=O)[C@H](CCCNC(=N)N)NC(=O)[C@H](CCCNC(=N)N)NC(=O)[C@H](CCCNC(=N)N)NC(=O)[C@H](CCCNC(=N)N)NC(=O)[C@H](CCCNC(=N)N)NC(=O)CCCCCCCCCCNC(=O)[C@H]1O[C@@H](n2cnc3c(N)ncnc32)[C@H](O)[C@@H]1O)C(=O)O [Inhibitor IX, AdoC(Aun)Arg6]
- IC50 (µM) CK2 (protein kinase CK2): n. i.^f)

SMILES: N=C(N)NCCC[C@H](NC(=O)[C@H](CCCNC(=N)N)NC(=O)[C@H](CCCNC(=N)N)NC(=O)[C@H](CCCNC(=N)N)NC(=O)[C@H](CCCNC(=N)N)NC(=O)[C@H](CCCNC(=N)N)NC(=O)CCNC(=O)[C@H]1O[C@@H](n2cnc3c(N)ncnc32)[C@H](O)[C@@H]1O)C(=O)O [Inhibitor V, AdoC(β-Ala)Arg6]
- IC50 (µM) CK2 (protein kinase CK2): n. i.^f)
- IC50 [3]: 1.8 ± 0.1 µM

SMILES: N=C(N)NCCC[C@H](NC(=O)[C@H](CCCNC(=N)N)NC(=O)[C@H](CCCNC(=N)N)NC(=O)[C@H](CCCNC(=N)N)NC(=O)[C@H](CCCNC(=N)N)NC(=O)[C@H](CCCNC(=N)N)NC(=O)CCCNC(=O)[C@H]1O[C@@H](n2cnc3c(N)ncnc32)[C@H](O)[C@@H]1O)C(=O)O [Inhibitor VI, AdoC(GABA)Arg6]
- IC50 (protein kinase CK2): > 30 µM
- IC50 [3]: 1.3 ± 0.2 µM

SMILES: N=C(N)NCCC[C@H](NC(=O)[C@H](CCCNC(=N)N)NC(=O)[C@H](CCCNC(=N)N)NC(=O)[C@H](CCCNC(=N)N)NC(=O)[C@H](CCCNC(=N)N)NC(=O)[C@H](CCCNC(=N)N)NC(=O)CCCCCNC(=O)[C@H]1O[C@@H](n2cnc3c(N)ncnc32)[C@H](O)[C@@H]1O)C(=O)O [Inhibitor VII, AdoC(Ahx)Arg6]
- IC50 (protein kinase CK2): > 30 µM
- IC50 [3]: 0.12 ± 0.02 µM
- Ki (Protein Kinase A [1]): 40.1 nM

SMILES: N=C(N)NCCC[C@H](NC(=O)[C@H](CCCNC(=N)N)NC(=O)[C@H](CCCNC(=N)N)NC(=O)[C@H](CCCNC(=N)N)NC(=O)[C@H](CCCNC(=N)N)NC(=O)[C@H](CCCNC(=N)N)NC(=O)CCCCCCCNC(=O)[C@H]1O[C@@H](n2cnc3c(N)ncnc32)[C@H](O)[C@@H]1O)C(=O)O [Inhibitor VIII, AdoC(Aoc)Arg6]
- IC50 (protein kinase CK2): > 30 µM
- IC50 [3]: 0.24 ± 0.02 µM

SMILES: Nc1ncnc2nc[nH]c12 [adenine]
- Kd (PKA): 30 µM
